Assay results as given in patent publication US20230077104A1, “L-SEPIAPTERIN AND METHODS OF USE FOR TREATING DISEASES AND DISORDERS” (THE UNITED STATES GOVERNMENT AS REPRESENTED BY THE …, priority 2020, published 2023).

Assays:
[1] = system: HRGECs / neutrophils; test: Neutrophil migration to conditioned media of SLE serum-treated HRGECs, by dose of the patients' medication; type: cell-based, human; details: serum of SLE patients on differing doses
Description: HRGECs were plated at 4×10^4 cells per well of a 48-well fibronectin-coated plate in complete growth media at 37° C. with 5% CO2. On confluence, cells were washed three times in ECM. Cells were then cultured with 10% serum (SLE or control) in ECM for 3 hours and then washed three times in ECM. Cells were serum starved overnight in ECM. The resulting conditioned media (CM) was then collected and passed through a 0.2 μm pore membrane to remove any cellular debris and frozen at −80° C. for later use.
Transwell membrane chambers with 3 μm pores from a 96-well Migration Plate (Corning, Corning, N.Y., USA) were equilibrated in RPMI for 1 hour at 37° C. Then RPMI was removed. CM or negative (CM from serum-free treatment)/positive (10^−7 M interleukin (IL)-8 (R&D Systems, Minneapolis, Minn., USA)) controls were added to the 96-well black-walled receiver wells (Corning); 1.5×10^5 neutrophils in ECM were then added to the upper chamber of each insert and incubated for 1 hour to allow for neutrophil migration toward the conditioned medium. Cells that migrated through the membrane into the CM were then labelled with Calcein AM and incubated for 1 hour at 37° C. as described above. Fluorescence intensity was then measured from the bottom of the plate at 485 nm excitation, 520 nm emission using a fluorescence microplate reader (Biotek HT Synergy). A standard curve of Calcein AM-labelled neutrophils (using 1.5×10^5, 1.0×10^5, 5.0×10^4, 2.5×10^4, 1.25×10^4, 0.625×10^4 and 0 neutrophils) was created and fluorescence intensity was quantified on the microplate reader. The linear equation was then calculated and fluorescence intensity of samples could then be input into the linear equation to determine neutrophil cell number. The fluorescence intensity of migrated neutrophils in the lower chamber was measured as described (Jones Buie et al., Lupus Sci Med 2019; 6:e000294). All values were normalized to untreated controls.

[2] = system: HRGECs / neutrophils; test: Neutrophil adhesion to SLE serum-treated HRGECs, by dose of the patients' medication; type: cell-based, human; details: serum of SLE patients on differing doses
Description: HRGECs were cultured in 48 well fibronectin-coated plates at 80 000 cells per well in complete growth media until confluent. HRGECs were washed, serum starved for 1 hour in ECM supplemented with 0.5% FBS, washed again. Treatments consisting of ECM only, 2.5% serum (lupus or control) in ECM or 100 ng/mL TNF-alpha (Thermo Fisher Scientific) (positive control) in ECM were added to the HRGECs, and cells underwent incubation for 3 hours at 37° C. HRGECs were then washed three times with RPMI-1640 (without phenol red); 6×10^5 Calcein AM-labelled neutrophils were added to each well of the treated HRGECs. Cells were incubated for 20 min at 37° C. and washed five times with PBS (without Ca^2+/Mg^2+). Fluorescence intensity was quantified before the first wash and after the fifth wash to determine percent cell adherence, with all values then normalized to untreated controls. Fluorescence intensity was measured from the top of the plate at 485 nm excitation, 520 nm emission using a fluorescence microplate reader (Biotek HT Synergy).

[3] = molecular target: iNOS (Mus musculus, UniProt P29477); details: cited from earlier work
[4] = system: human renal glomerular endothelial cells (HRGEC); test: NO production (DAF-FM with urate) by HRGEC treated with LN serum; type: cell-based; details: urate added, 5 μM L-Sepiapterin, 25 μM VAS2870
Description: The inflammatory phenotype of HUVECs differs from microvascular endothelial cells and may not reflect mechanisms in glomerular endothelial cells. To confirm the uncoupling effects lead to functional changes in uncoupling and NO production by EC treated with LN serum in HRGEC, HRGEC as in FIG. 10 was treated with LN serum in a black walled 96-well plate. […] NO production was quantified using DAF-FM fluorescence with urate added to prevent ONOO— fluorescence. […] While not wishing to be bound to any particular theory, one possible explanation for this finding is that uncoupled NOS is a significant source of ROS in LN (Njoku, C. J. et al., 2005, J. Investig. Med., 53:347-52).
HRGECs are plated at 3×10^4 cells per well in a 96-well black-walled plate and cultured in complete growth media at 37° C. in a humidified atmosphere with 5% CO2. Upon confluence, complete growth medium is removed, and cells washed in ECM-prf (phenol red free). Cells are incubated with 2 μM DAF-FM Diacetate for 60 minutes at 37° C., then cells washed in ECM-prf. […] 0.6 mM DPTA NONOate (Abcam) is a positive control, while L-NAME (100 μM) is a negative control. […] Plates are incubated for 30 minutes at 37° C. and read at 485/528 excitation/emission on a microplate reader (BioTek HT Synergy). […]

[5] = system: p38α and p38β2; details: cited from earlier work
[6] = system: human umbilical vein endothelial cells (HUVECs); test: Measurement of nitric oxide production (DAF-FM fluorescence, flow cytometry) in serum-cultured HUVECs; type: cell-based; details: for DAF-FM MFI, a marker of NO production: L-sep 5 μM 6 hours
Description: Primary human umbilical vein endothelial cells from pooled donors were purchased from Lonza (Walkersville, Md., USA) and cultured according to the manufacturer's instructions in 5% CO2 at 37° C. in humidified air. Cells were cultured in endothelial cell basal medium-2 (EBM-2) supplemented with EBM-2 SingleQuot (Lonza), pH 7.6-8.0. Media was changed every other day until cells were 70%-80% confluent. HUVECs were sub-cultured using TryPLE Express, pH 8.0 (ThermoFisher Scientific, Waltham, Mass., USA). Cell growth was limited to 12 population doublings, and all experiments were carried out using cells between passages 3-5. For serum experiments, cells were cultured with 20%-50% serum for 6 or 24 hours prior to further analysis.
For real-time detection of NO production in HUVECs, 1.2×10^5 cells were seeded in a 12-well tissue culture plate. Following adherence, cells were serum starved for 6 hours in endothelial basal media (EBM) containing 0.2% fetal bovine serum (FBS). Cells were stimulated with either 50% healthy or SLE sera±L-sep (5 μM; 6 hours), the eNOS-specific inhibitor, Nω-Nitro-L-arginine (L-NNA, 10 μM; 30 min pre-incubation (Tocris; Bristol, UK)) or the NO donor 3,3′-diamino-4′-methoxyflavone (DD1, 10 μM, Tocris). Following stimulation, cells were washed twice with phosphate buffered saline (PBS) and loaded with 1 μM DAF-FM diacetate (4-amino-5-methylamino-2′,7′-difluorofluorescein diacetate, 1 μM) (ThermoFisher Scientific) in phenol red-free EBM for 30-45 min. […] A population of 2000-10 000 cells were gated to remove doublets and controls and analyzed based on their fluorescence intensities using a FACS Calibur flow cytometer (Becton Dickenson, San Diego, USA). The mean fluorescence intensity (MFI) was normalized to respective populations in unstimulated cells. In order to discriminate between NO and other gaseous molecules previously shown to augment DAF-FM fluorescence, a urate assay was performed to optimize the assay (data not shown).

[7] = system: HUVECs / neutrophils; test: Neutrophil adhesion assay on HUVECs; type: cell-based, human
Description: HUVECs were plated at 5.0×10^4 cells/mL in a 24-well plate (Costar) and allowed to adhere overnight. HUVECs were serum starved for 3 hours in phenol-red free 0.2% FBS EBM media (Lonza) prior to activation with 10% sera for 4 hours. Tumor necrosis factor-α (100 ng/mL) was used as the positive control. Neutrophils isolated from healthy human blood as outlined previously were labelled with Calcein AM (Life Technologies) at 5×10^5 cells/mL. Neutrophils were washed gently four times in warm serum-free EBM culture media prior to co-culturing with HUVECs for 60 min after which non-adherent cells were removed by repeated gentle washing (four times) with EBM culture media. Fluorescence intensity was measured at 520 nM with a FLUOStar Omega microplate reader (Cary, N.C., USA), and images were captured using confocal microscopy. Data are reported as ratios of the number of neutrophils to the number of endothelial cells as averages from three different visual fields.

[8] = system: BALB/c mice with Angiotensin II minipumps; test: Systolic blood pressure in Angiotensin II minipump hypertension; type: in vivo
Description: Hypertension was created in some BALB/c mice with Angiotensin II minipumps. Mice were treated half with CSNA-001 (L-sep) 8 days after the pumps were placed and baseline SBP checked. The decrease in systolic BP was significant in the treated mice but not the untreated (FIG. 21 and FIG. 22).

[9] = system: C57B6/J mice with angiotensin II minipump; test: Tail cuff blood pressure response to acetylcholine, angiotensin II model of hypertension; type: in vivo; details: 10 mg/kg/d by gavage vs vehicle
Description: To determine the effect of sepiapterin in a mouse model of hypertension, C57B6/J mice were implanted with an angiotensin II minipump for 2 weeks to induce hypertension. The animals were then treated with either sepiapterin 10 mg/kg/d by gavage or vehicle. A tail cuff measure of blood pressure was taken followed by injection of acetylcholine and a second tail cuff measure of blood pressure.

[10] = system: intracellular BH4; details: compared with exogenous BH4 (Crabtree 2011); cited from earlier work
[11] = system: humans with phenylketonuria and tetrahydrobiopterin deficiencies; details: humans with phenylketonuria and tetrahydrobiopterin deficiencies (Smith 2019); cited from earlier work
[12] = molecular target: p38α (Homo sapiens, UniProt Q16539); details: cited from earlier work
[13] = system: TLR 7/9; details: cited from earlier work

Chain of iNOS (P29477 whole entry): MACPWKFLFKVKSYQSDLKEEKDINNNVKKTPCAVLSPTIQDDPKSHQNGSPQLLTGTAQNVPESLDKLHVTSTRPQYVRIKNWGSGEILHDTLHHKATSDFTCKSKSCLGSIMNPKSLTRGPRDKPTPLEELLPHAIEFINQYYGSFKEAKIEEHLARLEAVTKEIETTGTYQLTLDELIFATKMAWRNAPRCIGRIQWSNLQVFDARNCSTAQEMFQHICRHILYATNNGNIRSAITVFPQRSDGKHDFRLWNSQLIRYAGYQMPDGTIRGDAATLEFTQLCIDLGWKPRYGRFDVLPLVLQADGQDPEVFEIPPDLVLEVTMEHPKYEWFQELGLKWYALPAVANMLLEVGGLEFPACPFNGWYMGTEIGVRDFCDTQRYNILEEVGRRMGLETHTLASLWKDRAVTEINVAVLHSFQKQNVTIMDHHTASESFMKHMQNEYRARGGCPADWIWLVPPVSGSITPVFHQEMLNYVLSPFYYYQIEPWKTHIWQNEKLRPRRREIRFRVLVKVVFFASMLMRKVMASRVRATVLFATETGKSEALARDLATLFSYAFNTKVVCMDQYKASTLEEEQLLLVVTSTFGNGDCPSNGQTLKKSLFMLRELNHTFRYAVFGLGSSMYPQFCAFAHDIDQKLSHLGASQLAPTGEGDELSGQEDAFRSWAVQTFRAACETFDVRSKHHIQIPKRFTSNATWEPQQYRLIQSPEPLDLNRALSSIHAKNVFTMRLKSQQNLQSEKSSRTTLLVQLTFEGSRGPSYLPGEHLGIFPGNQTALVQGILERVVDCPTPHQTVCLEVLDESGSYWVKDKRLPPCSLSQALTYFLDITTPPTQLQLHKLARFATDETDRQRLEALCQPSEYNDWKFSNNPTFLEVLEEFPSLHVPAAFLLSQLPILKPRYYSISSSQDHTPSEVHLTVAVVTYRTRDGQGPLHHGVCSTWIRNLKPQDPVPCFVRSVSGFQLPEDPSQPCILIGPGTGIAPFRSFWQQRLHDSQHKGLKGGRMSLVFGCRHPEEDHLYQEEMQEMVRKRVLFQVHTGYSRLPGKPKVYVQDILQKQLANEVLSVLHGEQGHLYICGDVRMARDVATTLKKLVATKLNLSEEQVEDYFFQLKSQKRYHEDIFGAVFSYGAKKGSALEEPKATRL
Chain of p38α (Q16539 whole entry): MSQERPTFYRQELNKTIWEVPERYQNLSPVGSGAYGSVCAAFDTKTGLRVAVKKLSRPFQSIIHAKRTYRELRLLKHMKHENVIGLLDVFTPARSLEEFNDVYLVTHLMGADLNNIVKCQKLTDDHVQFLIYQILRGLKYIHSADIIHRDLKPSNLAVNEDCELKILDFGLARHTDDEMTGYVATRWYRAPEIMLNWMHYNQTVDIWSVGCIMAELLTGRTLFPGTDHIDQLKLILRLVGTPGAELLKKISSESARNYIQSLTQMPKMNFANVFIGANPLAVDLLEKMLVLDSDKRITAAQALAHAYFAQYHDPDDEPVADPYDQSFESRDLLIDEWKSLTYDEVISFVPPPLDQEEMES

## C[C@]12C=CC(=O)C=C1CC[C@@H]1[C@@H]2C(=O)C[C@@]2(C)[C@H]1CC[C@]2(O)C(=O)CO [Prednisone, prednisone]
[1]
  neutrophil migration, dosing effects of medication: No difference
[2]
  neutrophil adhesion, dosing effects of medication: No difference

## CC(=N)NCCCC[C@H](N)C(=O)O [L-NIL]
[3]
  IC50: 3.3 µM

## c1ccc(Cn2nnc3c(Sc4nc5ccccc5o4)ncnc32)cc1 [VAS2870, reference compound]
[4]
  NO production (DAF-FM fluorescence): not effective

## NCCCC[C@H](N[C@@H](CCc1ccccc1)C(=O)O)C(=O)N1CCC[C@H]1C(=O)O [Lisinopril]
[1]
  neutrophil migration, dosing effects of medication: No difference
[2]
  neutrophil adhesion, dosing effects of medication: No difference

## COc1c(C)c2c(c(O)c1C/C=C(\C)CCC(=O)OCCN1CCOCC1)C(=O)OC2 [CellCept, mycophenolate mofetil]
[1]
  neutrophil migration, dosing effects of medication: No difference
[2]
  neutrophil adhesion, dosing effects of medication: No difference

## Cc1ccccc1C(=O)c1ccc(Nc2ccc(Br)cc2N)cc1Cl [EO1428]
[5]
  IC50: 74 nM

## CC(O)C(=O)C1=Nc2c([nH]c(N)nc2=O)NC1 [L-sepiapterin, 2-amino-6-[-2-hydroxypropanoyl]-7,8-dihydro-1H-pteridin-4-one]
[6]; SLE serum cultured HUVECs, 50% serum, vs SLE cultured cells without L-sepiapterin, p<0.01
  DAF-FM MFI, a marker of NO production: significantly increased
[6]; control serum cultured HUVECs
  DAF-FM MFI, a marker of NO production: not observed
[6]; vs ratios in control and healthy serum culture conditions, p<0.001 and <0.01
  ratio in MFI-fold change between SLE serum+L-sepiapterin and SLE serum: significantly different
[7]; SLE serum cultured HUVECs
  neutrophil adhesion induced by SLE serum: did not reverse neutrophil adhesion
[7]; cells cultured in EBM-2 media, p<0.05
  neutrophil adhesion: reversed neutrophil adhesion
[4]
  NO production (DAF-FM fluorescence): increased more
[8]; treated mice, 20 mg/kg daily, Day 7 to Day 14, cuff pressure
  decrease in systolic BP: significant
[8]; treated vs untreated mice
  mean blood pressure responses to acetyl choline: significant differences
[8]; treated vs untreated mice, 20 mg/kg daily
  differences in reduction of systolic blood pressure: about 8 mmHg
[9]
  endothelial function (difference in tail cuff pressure after acetylcholine): improves endothelial function
[10]
  intracellular BH4 levels: more effectively than exogenous BH4
[11]
  safety profile: favorable

## Cc1c(F)cc(C(=O)NC2CC2)cc1-c1c(F)cn2c(C(C)(C)C)nnc2c1F [AL 8697]
[12]
  IC50: 6 nM

## CCN(CCO)CCCC(C)Nc1ccnc2cc(Cl)ccc12 (stereo not shown) [hydroxychloroquine]
[1]
  neutrophil migration, dosing effects of medication: No difference
[2]
  neutrophil adhesion, dosing effects of medication: No difference
[13]
  IC50: ~4 µM
